# Test results from PubChem BioAssay (NCI).
#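 Interpolation was linear, between the two tested concentrations surrounding the appropriate level; five concentrations were tested over 48 hours in 96-well plates. TGI marks complete inhibition of growth.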 Calls of active or inactive are those of the source. Cut-off read from the data, not from the text of the source: active = GI50 below about 0.43 µM; inactive = the rest.
# Legend:
# Assay in all cases: DTP human tumour cell line panel, 48 h
# 786-0 renal = system: 786-0 renal
# A498 renal = system: A498 renal
# A549 NSCLC = system: A549 NSCLC
# ACHN renal = system: ACHN renal
# BT-549 breast = system: BT-549 breast
# CAKI-1 renal = system: CAKI-1 renal
# COLO 205 colon = system: COLO 205 colon
# DU-145 prostate = system: DU-145 prostate
# EKVX NSCLC = system: EKVX NSCLC
# HCC-2998 colon = system: HCC-2998 colon
# HCT-116 colon = system: HCT-116 colon
# HCT-15 colon = system: HCT-15 colon
# HL-60(TB) leukemia = system: HL-60(TB) leukemia
# HOP-62 NSCLC = system: HOP-62 NSCLC
# HOP-92 NSCLC = system: HOP-92 NSCLC
# HS 578T breast = system: HS 578T breast
# HT29 colon = system: HT29 colon
# IGROV1 ovarian = system: IGROV1 ovarian
# K-562 leukemia = system: K-562 leukemia
# KM12 colon = system: KM12 colon
# LOX IMVI melanoma = system: LOX IMVI melanoma
# M14 melanoma = system: M14 melanoma
# MALME-3M melanoma = system: MALME-3M melanoma
# MCF7 breast = system: MCF7 breast
# MDA-MB-231 breast = system: MDA-MB-231 breast
# MDA-MB-435 = system: MDA-MB-435
# MDA-N = system: MDA-N
# MOLT-4 leukemia = system: MOLT-4 leukemia
# NCI-H226 lung = system: NCI-H226 lung
# NCI-H23 lung = system: NCI-H23 lung
# NCI-H460 lung = system: NCI-H460 lung
# NCI-H522 lung = system: NCI-H522 lung
# NCI/ADR-RES ovarian = system: NCI/ADR-RES ovarian
# OVCAR-3 ovarian = system: OVCAR-3 ovarian
# OVCAR-4 ovarian = system: OVCAR-4 ovarian
# OVCAR-5 ovarian = system: OVCAR-5 ovarian
# OVCAR-8 ovarian = system: OVCAR-8 ovarian
# PC-3 prostate = system: PC-3 prostate
# RXF 393 renal = system: RXF 393 renal
# SF-268 CNS = system: SF-268 CNS
# SF-295 CNS = system: SF-295 CNS
# SF-539 CNS = system: SF-539 CNS
# SK-MEL-2 melanoma = system: SK-MEL-2 melanoma
# SK-MEL-28 melanoma = system: SK-MEL-28 melanoma
# SK-MEL-5 melanoma = system: SK-MEL-5 melanoma
# SK-OV-3 ovarian = system: SK-OV-3 ovarian
# SN12C renal = system: SN12C renal
# SNB-19 CNS = system: SNB-19 CNS
# SNB-75 CNS = system: SNB-75 CNS
# SR leukemia = system: SR leukemia
# SW-620 colon = system: SW-620 colon
# T-47D breast = system: T-47D breast
# TK-10 renal = system: TK-10 renal
# U251 CNS = system: U251 CNS
# UACC-257 melanoma = system: UACC-257 melanoma
# UACC-62 melanoma = system: UACC-62 melanoma
# UO-31 renal = system: UO-31 renal
# CCRF-CEM leukemia = system: CCRF-CEM leukemia
# RPMI-8226 leukemia = system: RPMI-8226 leukemia
compound,measurement,setting,value
CCCCCCCC/C=C\CCCCCCC/C=C1/C[C@](/C=C/C(=O)OC)(CO)OC1=O,TGI,786-0 renal,10.3 µM
same,TGI,A498 renal,21.2 µM
same,TGI,A549 NSCLC,17.3 µM
same,TGI,ACHN renal,16.7 µM
same,TGI,BT-549 breast,17.8 µM
same,TGI,CAKI-1 renal,12.5 µM
same,TGI,COLO 205 colon,5.04 µM
same,TGI,DU-145 prostate,23.4 µM
same,TGI,EKVX NSCLC,23 µM
same,TGI,HCC-2998 colon,10.1 µM
same,TGI,HCT-116 colon,15.5 µM
same,TGI,HCT-15 colon,20.5 µM
same,TGI,HL-60(TB) leukemia,10.3 µM
same,TGI,HOP-62 NSCLC,19 µM
same,TGI,HOP-92 NSCLC,20.3 µM
same,TGI,HS 578T breast,9.29 µM
same,TGI,HT29 colon,20.9 µM
same,TGI,IGROV1 ovarian,23.7 µM
same,TGI,K-562 leukemia,> 32.5 µM
same,TGI,KM12 colon,23.9 µM
same,TGI,LOX IMVI melanoma,12.8 µM
same,TGI,M14 melanoma,11.6 µM
same,TGI,MALME-3M melanoma,8.74 µM
same,TGI,MCF7 breast,20.8 µM
same,TGI,MDA-MB-231 breast,17.7 µM
same,TGI,MDA-MB-435,7.41 µM
same,TGI,MDA-N,3.19 µM
same,TGI,MOLT-4 leukemia,> 21.5 µM
same,TGI,NCI-H226 lung,15.8 µM
same,TGI,NCI-H23 lung,24.9 µM
same,TGI,NCI-H460 lung,19.9 µM
same,TGI,NCI-H522 lung,17.6 µM
same,TGI,NCI/ADR-RES ovarian,24 µM
same,TGI,OVCAR-3 ovarian,24 µM
same,TGI,OVCAR-4 ovarian,16.9 µM
same,TGI,OVCAR-5 ovarian,20.3 µM
same,TGI,OVCAR-8 ovarian,19.2 µM
same,TGI,PC-3 prostate,14.5 µM
same,TGI,RXF 393 renal,28.5 µM
same,TGI,SF-268 CNS,19.7 µM
same,TGI,SF-295 CNS,17.1 µM
same,TGI,SF-539 CNS,2.84 µM
same,TGI,SK-MEL-2 melanoma,27.6 µM
same,TGI,SK-MEL-28 melanoma,10.2 µM
same,TGI,SK-MEL-5 melanoma,18 µM
same,TGI,SK-OV-3 ovarian,24.3 µM
same,TGI,SN12C renal,14.8 µM
same,TGI,SNB-19 CNS,20.3 µM
same,TGI,SNB-75 CNS,20.4 µM
same,TGI,SR leukemia,> 31.7 µM
same,TGI,SW-620 colon,11.4 µM
same,TGI,T-47D breast,19.8 µM
same,TGI,TK-10 renal,15.3 µM
same,TGI,U251 CNS,21.2 µM
same,TGI,UACC-257 melanoma,29.6 µM
same,TGI,UACC-62 melanoma,22.4 µM
same,TGI,UO-31 renal,15 µM
O=c1cc(-c2ccc(O)c(O)c2-c2c(O)cc(O)c3c(=O)cc(-c4ccc(O)c(O)c4-c4c(O)cc(O)c5c(=O)cc(-c6ccc(O)c(O)c6)oc45)oc23)oc2cc(O)cc(O)c12,outcome,A498 renal,inactive
same,outcome,A549 NSCLC,inactive
same,outcome,BT-549 breast,inactive
same,outcome,CAKI-1 renal,inactive
same,outcome,CCRF-CEM leukemia,inactive
same,outcome,COLO 205 colon,inactive
same,outcome,DU-145 prostate,inactive
same,outcome,EKVX NSCLC,inactive
same,outcome,HCC-2998 colon,inactive
same,outcome,HCT-116 colon,inactive
same,outcome,HCT-15 colon,inactive
same,outcome,HL-60(TB) leukemia,inactive
same,outcome,HOP-62 NSCLC,inactive
same,outcome,HOP-92 NSCLC,inactive
same,outcome,HS 578T breast,inactive
same,outcome,HT29 colon,inactive
same,outcome,IGROV1 ovarian,inactive
same,outcome,K-562 leukemia,inactive
same,outcome,LOX IMVI melanoma,inactive
same,outcome,M14 melanoma,inactive
same,outcome,MALME-3M melanoma,inactive
same,outcome,MCF7 breast,inactive
same,outcome,MDA-MB-231 breast,inactive
same,outcome,MDA-MB-435,inactive
same,outcome,MDA-N,inactive
same,outcome,MOLT-4 leukemia,inactive
same,outcome,NCI-H226 lung,inactive
same,outcome,NCI-H23 lung,inactive
same,outcome,NCI-H460 lung,inactive
same,outcome,NCI/ADR-RES ovarian,inactive
same,outcome,OVCAR-3 ovarian,inactive
same,outcome,OVCAR-4 ovarian,inactive
same,outcome,OVCAR-5 ovarian,inactive
same,outcome,OVCAR-8 ovarian,inactive
same,outcome,PC-3 prostate,inactive
same,outcome,RXF 393 renal,inactive
same,outcome,SF-268 CNS,inactive
same,outcome,SF-295 CNS,inactive
same,outcome,SF-539 CNS,inactive
same,outcome,SK-MEL-2 melanoma,inactive
same,outcome,SK-MEL-28 melanoma,inactive
same,outcome,SK-MEL-5 melanoma,inactive
same,outcome,SK-OV-3 ovarian,inactive
same,outcome,SN12C renal,inactive
same,outcome,SNB-19 CNS,inactive
same,outcome,SNB-75 CNS,inactive
same,outcome,SR leukemia,inactive
same,outcome,SW-620 colon,inactive
same,outcome,T-47D breast,inactive
same,outcome,TK-10 renal,inactive
same,outcome,U251 CNS,inactive
same,outcome,UACC-257 melanoma,inactive
same,outcome,UACC-62 melanoma,inactive
same,outcome,UO-31 renal,inactive
O=C1c2ccc3cc(CCl)cc(O)c3c2C(=O)c2cccc(O)c21,TGI,786-0 renal,> 10 µM
same,TGI,A498 renal,> 10 µM
same,TGI,A549 NSCLC,> 10 µM
same,TGI,ACHN renal,7.4 µM
same,TGI,BT-549 breast,> 10 µM
same,TGI,CAKI-1 renal,> 10 µM
same,TGI,CCRF-CEM leukemia,5.16 µM
same,TGI,COLO 205 colon,4.11 µM
same,TGI,DU-145 prostate,> 10 µM
same,TGI,EKVX NSCLC,> 10 µM
same,TGI,HCC-2998 colon,> 10 µM
same,TGI,HCT-116 colon,4.18 µM
same,TGI,HCT-15 colon,> 10 µM
same,TGI,HL-60(TB) leukemia,1.61 µM
same,TGI,HOP-62 NSCLC,> 10 µM
same,TGI,HOP-92 NSCLC,> 10 µM
same,TGI,HS 578T breast,> 10 µM
same,TGI,IGROV1 ovarian,> 10 µM
same,TGI,K-562 leukemia,> 10 µM
same,TGI,KM12 colon,> 10 µM
same,TGI,LOX IMVI melanoma,> 10 µM
same,TGI,M14 melanoma,2.45 µM
same,TGI,MALME-3M melanoma,0.0669 µM
same,TGI,MCF7 breast,2.72 µM
same,TGI,MDA-MB-231 breast,3.16 µM
same,TGI,MDA-MB-435,0.324 µM
same,TGI,MDA-N,0.314 µM
same,TGI,MOLT-4 leukemia,6.75 µM
same,TGI,NCI-H226 lung,> 10 µM
same,TGI,NCI-H23 lung,> 10 µM
same,TGI,NCI-H460 lung,> 10 µM
same,TGI,NCI-H522 lung,> 10 µM
same,TGI,NCI/ADR-RES ovarian,5.67 µM
same,TGI,OVCAR-3 ovarian,0.407 µM
same,TGI,OVCAR-4 ovarian,> 10 µM
same,TGI,OVCAR-5 ovarian,> 10 µM
same,TGI,OVCAR-8 ovarian,5.03 µM
same,TGI,PC-3 prostate,> 10 µM
same,TGI,RPMI-8226 leukemia,> 10 µM
same,TGI,RXF 393 renal,9.83 µM
same,TGI,SF-268 CNS,9.18 µM
same,TGI,SF-295 CNS,> 10 µM
same,TGI,SF-539 CNS,6.42 µM
same,TGI,SK-MEL-2 melanoma,> 10 µM
same,TGI,SK-MEL-28 melanoma,8.27 µM
same,TGI,SK-MEL-5 melanoma,1.98 µM
same,TGI,SK-OV-3 ovarian,> 10 µM
same,TGI,SN12C renal,7.26 µM
same,TGI,SNB-19 CNS,> 10 µM
same,TGI,SR leukemia,> 10 µM
same,TGI,SW-620 colon,1 µM
same,TGI,T-47D breast,> 10 µM
same,TGI,TK-10 renal,> 10 µM
same,TGI,U251 CNS,> 10 µM
same,TGI,UACC-257 melanoma,3.04 µM
same,TGI,UACC-62 melanoma,3.85 µM
CC(C)(C)C(=O)CC1(O)C=C(O)C(O)(CC(=O)C(C)(C)C)O1 (stereo not drawn),TGI,786-0 renal,34.5 µM
same,TGI,A498 renal,> 100 µM
same,TGI,A549 NSCLC,> 100 µM
same,TGI,BT-549 breast,> 100 µM
same,TGI,CAKI-1 renal,67.6 µM
same,TGI,CCRF-CEM leukemia,> 100 µM
same,TGI,COLO 205 colon,> 100 µM
same,TGI,DU-145 prostate,> 100 µM
same,TGI,EKVX NSCLC,> 100 µM
same,TGI,HCC-2998 colon,> 100 µM
same,TGI,HCT-116 colon,55.3 µM
same,TGI,HCT-15 colon,> 100 µM
same,TGI,HL-60(TB) leukemia,72.1 µM
same,TGI,HOP-62 NSCLC,64.7 µM
same,TGI,HOP-92 NSCLC,> 100 µM
same,TGI,HS 578T breast,> 100 µM
same,TGI,HT29 colon,> 100 µM
same,TGI,IGROV1 ovarian,55.2 µM
same,TGI,K-562 leukemia,> 100 µM
same,TGI,KM12 colon,> 100 µM
same,TGI,LOX IMVI melanoma,> 100 µM
same,TGI,M14 melanoma,51.1 µM
same,TGI,MALME-3M melanoma,> 100 µM
same,TGI,MCF7 breast,> 100 µM
same,TGI,MDA-MB-231 breast,> 100 µM
same,TGI,MDA-MB-435,> 100 µM
same,TGI,MDA-N,> 100 µM
same,TGI,MOLT-4 leukemia,> 100 µM
same,TGI,NCI-H226 lung,56.6 µM
same,TGI,NCI-H23 lung,88.7 µM
same,TGI,NCI-H460 lung,> 100 µM
same,TGI,NCI-H522 lung,80 µM
same,TGI,NCI/ADR-RES ovarian,> 100 µM
same,TGI,OVCAR-3 ovarian,> 100 µM
same,TGI,OVCAR-4 ovarian,64.1 µM
same,TGI,OVCAR-5 ovarian,> 100 µM
same,TGI,OVCAR-8 ovarian,> 100 µM
same,TGI,PC-3 prostate,> 100 µM
same,TGI,RPMI-8226 leukemia,69.7 µM
same,TGI,RXF 393 renal,45.1 µM
same,TGI,SF-268 CNS,> 100 µM
same,TGI,SF-295 CNS,> 100 µM
same,TGI,SF-539 CNS,90.2 µM
same,TGI,SK-MEL-2 melanoma,> 100 µM
same,TGI,SK-MEL-28 melanoma,> 100 µM
same,TGI,SK-MEL-5 melanoma,> 100 µM
same,TGI,SK-OV-3 ovarian,> 100 µM
same,TGI,SN12C renal,> 100 µM
same,TGI,SNB-19 CNS,> 100 µM
same,TGI,SR leukemia,> 100 µM
same,TGI,T-47D breast,> 100 µM
same,TGI,TK-10 renal,> 100 µM
same,TGI,U251 CNS,> 100 µM
same,TGI,UACC-257 melanoma,> 100 µM
same,TGI,UACC-62 melanoma,97.1 µM
same,TGI,UO-31 renal,> 100 µM
